From patent publication US7160898B2, “Pharmacological treatment for sleep apnea” (Board of Trustees of The University of Illinois, priority 2002, dated 2007) come the findings set out here.

For this test, the system named is rat model of spontaneous sleep apnea. In words: Spontaneous sleep apnea in freely moving rats after GR38032F (Example 2). To be noted: 1 mg/kg i.p. Format: in vivo, rat (Sprague-Dawley). As to the method:
Adult, male Sprague-Dawley rats (Sasco-King, Wilmington, Mass.; usually 8 per test group; 300 g) were maintained on a 12-hour light (08:00–20:00 hour)/12-hour dark (20:00–08:00 hour) cycle for one week, housed in individual cages and given ad libitum access to food and water. Following the one week of acclimatization, animals were subjected to the following surgical procedures.
Acclimatized animals were anesthetized for the implantation of cortical electrodes for electroencephalogram (EEG) recording and neck muscle electrodes for electromyogram (EMG) recording using a mixture of ketamine (Vedco, Inc., St. Joseph, Mo.; 100 mg/ml) and acetylpromazine (Vedco, Inc., St. Joseph, Mo.; 10 mg/ml; 4:1, volume/volume) at a volume of 1 ml/kg body weight. The surface of the skull was exposed surgically and cleaned with a 20% solution of hydrogen peroxide followed by a solution of 95% isopropyl alcohol. Next, a dental preparation of sodium fluoride (Flura-GEL®, Saslow Dental, Mt. Prospect, Ill.) was applied to harden the skull above the parietal cortex and allowed to remain in place for 5 minutes. The fluoride mixture was then removed from the skull above the parietal cortex. The EEG electrodes consisting of four stainless steel machine screws, having leads attached thereto, were threaded into the skull to rest on the dura over the parietal cortex. A thin layer of Justi® resin cement (Saslow Dental, Mt. Prospect, Ill.) was applied to cover the screw heads (of screws implanted in the skull) and surrounding skull to further promote the adhesion of the implant. EMG electrodes consisting of two ball-shaped wires were inserted into the bilateral neck musculature. All leads (i.e., EEG and EMG leads) were soldered to a miniature connector (39F1401, Newark Electronics, Schaumburg, Ill.). Lastly, the entire assembly was fixed to the skull with dental cement.
After surgery, all animals were allowed to recover for one week before being subjected to another surgery that involved implantation of a radiotelemetry transmitter (TA11-PXT, Data Sciences International, St. Paul, Minn.) for monitoring blood pressure (BP) and heart period (HP), estimated as pulse interval. After the animals were anesthetized (as described above), the hair from the subxiphoid space to the pelvis was removed. The entire area was scrubbed with iodine and rinsed with alcohol and saline. A 4–6 cm midline abdominal incision was made to allow good visualization of the area from the bifurcation of the aorta to the renal arteries. A retractor was used to expose the contents of the abdomen and the intestine was held back using saline moistened gauze sponges. The aorta was dissected from the surrounding fat and connective tissues using sterile cotton applicators. A 3-0 silk suture was placed beneath the aorta and traction was applied to the suture to restrict the blood flow. Then the implant (TA11-PXT) was held by forceps while the aorta was punctured just cranial to the bifurcation using a 21-gauge needle bent at the beveled end. The tip of the catheter was inserted under the needle using the needle as a guide until the thin-walled BP sensor section was within the vessel. […]
Physiological parameters (see below) from each animal were recorded on 2 occasions in random order, with recordings for an individual animal separated for at least 3 days. […]

In the case of `Cc1nccn1CC1CCc2c(c3ccccc3n2C)C1=O.Cl.O.O` (centres unmarked) [GR38032F, 1,2,3,9-tetrahydro-9-methyl-3-[(2-methylimidazol-1-yl)methyl]carbazole-4-one, hydrochloride, dihydrate], the “time for which REM sleep apneas were completely abolished following injection” value is reported as “at least 4 hours”. Moreover, the “rate of apneas per hour of REM sleep” value (6 hour recording period, p=0.01 2-way ANOVA) is recorded as “significant suppressant effect”. Under “first 2 hours of recording, paired t-tests p<0.01”, the “rate of apneas per hour of NREM sleep” value is “significant suppression of apneas”. Moreover, the “spontaneous apneas in REM sleep” value (first 4 hours of recordings) was “no animal exhibited a single spontaneous apnea in REM sleep”. Also, the “rate of apneas per hour of NREM sleep” value (whole 6 hours of recording, two-way ANOVA vs saline control) is “no significant effect of treatment or time over 6 hours”.
